Results taken from US20230085307A1, “PYRIDAZINONE COMPOUND AND HERBICIDE” (NISSAN CHEMICAL CORPORATION, priority 2019, published 2023).

How the values were obtained:
Conditions in all cases: foliage application, 320 g/ha, three weeks after application
southern crabgrass = test: Test Example 5: herbicidal effect by foliage application, plastic box (Table 20, symbol F); assay type: in vivo, southern crabgrass (Digitaria ciliaris)
Method in brief: (§1)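 Foliar spray test: emulsion formulation diluted in water to a set application rate, sprayed onto 14-day-old plants raised in diluvial soil at 25° C to 30° C under glass. Both herbicidal effect and crop effect rated visually three weeks later.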

green foxtail = test: Test Example 5: herbicidal effect by foliage application, plastic box (Table 20, symbol G); assay type: in vivo, green foxtail (Setaria viridis)
Method in brief: as §1

barnyard grass = test: Test Example 5: herbicidal effect by foliage application, plastic box (Table 20, symbol H); assay type: in vivo, barnyard grass (Echinochloa crus-galli)
Method in brief: as §1

wild oat = test: Test Example 5: herbicidal effect by foliage application, plastic box (Table 20, symbol I); assay type: in vivo, wild oat (Avena fatua)
Method in brief: as §1

blackgrass = test: Test Example 5: herbicidal effect by foliage application, plastic box (Table 20, symbol J); assay type: in vivo, blackgrass (Alopecurus myosuroides)
Method in brief: as §1

Italian ryegrass = test: Test Example 5: herbicidal effect by foliage application, plastic box (Table 20, symbol K); assay type: in vivo, Italian ryegrass (Lolium multiflorum)
Method in brief: as §1

windgrass = test: Test Example 5: herbicidal effect by foliage application, plastic box (Table 20, symbol L); assay type: in vivo, windgrass (Apera spica-venti)
Method in brief: as §1

velvetleaf = test: Test Example 5: herbicidal effect by foliage application, plastic box (Table 20, symbol M); assay type: in vivo, velvetleaf (Abutilon theophrasti)
Method in brief: as §1

redroot pigweed = test: Test Example 5: herbicidal effect by foliage application, plastic box (Table 20, symbol N); assay type: in vivo, redroot pigweed (Amaranthus retroflexus)
Method in brief: as §1

lambsquarters = test: Test Example 5: herbicidal effect by foliage application, plastic box (Table 20, symbol O); assay type: in vivo, lambsquarters (Chenopodium album)
Method in brief: as §1

chickweed = test: Test Example 5: herbicidal effect by foliage application, plastic box (Table 20, symbol P); assay type: in vivo, common chickweed (Stellaria media)
Method in brief: as §1

false cleavers = test: Test Example 5: herbicidal effect by foliage application, plastic box (Table 20, symbol Q); assay type: in vivo, false cleavers (Galium spurium)
Source text: [Test Example 5] Herbicidal Effect Test by Foliage Application
Sterilized diluvial soil was placed in a plastic box having a length of 21 cm, a width of 13 cm, and a depth of 7 cm. The seeds of each of southern crabgrass, green foxtail, barnyard grass, wild oat, blackgrass, Italian ryegrass, windgrass, velvetleaf, redroot pigweed, lambsquarters, chickweed, false cleavers, persian speedwell, corn, soybean, rice, wheat, beet, and rapeseed were sowed in a spot-like manner and covered with the soil having a thickness of about 1.5 cm. Thereafter, the plants were grown in a greenhouse at 25° C. to 30° C. After 14-day growth of the plants, the emulsion agent of the compound of the present invention prepared according to Formulation Example 2 was diluted with water so as to achieve a predetermined herbicide amount, and the diluted emulsion agent was uniformly applied to a foliage part with a small-sized spray. Three weeks after the herbicide application, the effect of the herbicide on each plant was evaluated according to the criteria of Test Example 1.

persian speedwell = test: Test Example 5: herbicidal effect by foliage application, plastic box (Table 20, symbol R); assay type: in vivo, Persian speedwell (Veronica persica)
Method in brief: as §1

CCCC(=O)Oc1c(C)nn(C)c(=O)c1-c1c(-c2ccc(OC)cc2)sc2cc(C)ccc12 [3-052]
F: southern crabgrass, herbicidal effect grade (southern crabgrass): 0 (Herbicidal rate of 5% or less (almost no effect))
G: green foxtail, herbicidal effect grade (green foxtail): 3 (Herbicidal rate of 40% or more and less than 70%)
H: barnyard grass, herbicidal effect grade (barnyard grass): 0 (Herbicidal rate of 5% or less (almost no effect))
I: wild oat, herbicidal effect grade (wild oat): 0 (Herbicidal rate of 5% or less (almost no effect))
J: blackgrass, herbicidal effect grade (blackgrass): 0 (Herbicidal rate of 5% or less (almost no effect))
K: Italian ryegrass, herbicidal effect grade (Italian ryegrass): 0 (Herbicidal rate of 5% or less (almost no effect))
L: windgrass, herbicidal effect grade (windgrass): 0 (Herbicidal rate of 5% or less (almost no effect))
M: velvetleaf, herbicidal effect grade (velvetleaf): 3 (Herbicidal rate of 40% or more and less than 70%)
N: redroot pigweed, herbicidal effect grade (redroot pigweed): 0 (Herbicidal rate of 5% or less (almost no effect))
O: lambsquarters, herbicidal effect grade (lambsquarters): 0 (Herbicidal rate of 5% or less (almost no effect))
P: chickweed, herbicidal effect grade (chickweed): 5 (Herbicidal rate of 90% or more (almost completely withered))
Q: false cleavers, herbicidal effect grade (false cleavers): 2 (Herbicidal rate of 20% or more and less than 40%)
R: persian speedwell, herbicidal effect grade (persian speedwell): 5 (Herbicidal rate of 90% or more (almost completely withered))
